Test results published in the NIST ThermoML archive (doi:10.1021/je3001969).

Test: xn = mol fraction of the nth substance listed
Conditions: Liquid, Pycnometric method

[C-]#[O+] [carbon monoxide] + CCC(=O)O
Conditions | mass density [kg/m3]
293.2 K, x1 = 0.0156 | 988.2
293.2 K, x1 = 0.0211 | 983.1
293.2 K, x1 = 0.0237 | 978.3
293.2 K, x1 = 0.0298 | 970.5
293.2 K, x1 = 0.0353 | 962.3
293.2 K, x1 = 0.0418 | 950.4
293.2 K, x1 = 0.0487 | 937.2
293.2 K, x1 = 0.0596 | 919.7
313.2 K, x1 = 0.0121 | 985.4
313.2 K, x1 = 0.0146 | 978.3
313.2 K, x1 = 0.0202 | 972.6
313.2 K, x1 = 0.0269 | 965.1
313.2 K, x1 = 0.0311 | 957.4
313.2 K, x1 = 0.0387 | 945.2
313.2 K, x1 = 0.0465 | 931.2
313.2 K, x1 = 0.0557 | 913.3
333.2 K, x1 = 0.0105 | 977.4
333.2 K, x1 = 0.0125 | 971.2
333.2 K, x1 = 0.0179 | 964.9
333.2 K, x1 = 0.024 | 958
333.2 K, x1 = 0.028 | 949.8
333.2 K, x1 = 0.0341 | 938.5
333.2 K, x1 = 0.0418 | 925.3
333.2 K, x1 = 0.0508 | 907.7
353.2 K, x1 = 0.0082 | 968.4
353.2 K, x1 = 0.0108 | 963
353.2 K, x1 = 0.0165 | 956.7
353.2 K, x1 = 0.0225 | 952.3
353.2 K, x1 = 0.0267 | 944.7
353.2 K, x1 = 0.0331 | 933.4
353.2 K, x1 = 0.0407 | 919.6
353.2 K, x1 = 0.0478 | 902.3

[C-]#[O+] [carbon monoxide] + COC=O
Conditions | mass density [kg/m3]
293.2 K, x1 = 0.0184 | 976.3
293.2 K, x1 = 0.0214 | 976.1
293.2 K, x1 = 0.0274 | 974.9
293.2 K, x1 = 0.0342 | 971.3
293.2 K, x1 = 0.0445 | 964.7
293.2 K, x1 = 0.054 | 954.7
293.2 K, x1 = 0.0735 | 932.5
293.2 K, x1 = 0.0914 | 911.2
313.2 K, x1 = 0.012 | 972.1
313.2 K, x1 = 0.0196 | 971.5
313.2 K, x1 = 0.0259 | 969.3
313.2 K, x1 = 0.0358 | 962.4
313.2 K, x1 = 0.0473 | 950.8
313.2 K, x1 = 0.0598 | 937.3
313.2 K, x1 = 0.0691 | 924.7
313.2 K, x1 = 0.0812 | 904.3
333.2 K, x1 = 0.0101 | 969.2
333.2 K, x1 = 0.0136 | 968.7
333.2 K, x1 = 0.0204 | 967.6
333.2 K, x1 = 0.0286 | 960.7
333.2 K, x1 = 0.0412 | 947.8
333.2 K, x1 = 0.0496 | 937.5
333.2 K, x1 = 0.0613 | 923
333.2 K, x1 = 0.0744 | 901.3
353.2 K, x1 = 0.0063 | 964.6
353.2 K, x1 = 0.01 | 964.2
353.2 K, x1 = 0.0159 | 963.2
353.2 K, x1 = 0.0224 | 956.8
353.2 K, x1 = 0.0297 | 948.7
353.2 K, x1 = 0.0401 | 935.3
353.2 K, x1 = 0.0549 | 916.8
353.2 K, x1 = 0.0696 | 895.8
